In patent US20230226092A1, “CANCER […] ON G[…]” (NuCana plc, priority 2015, published 2023):
Entries after “also recorded” stand apart in the source; their conditions may differ.

Test system: CD34^+/CD123^+ leukaemic stem cells
Assay: Quantification of CD34+/CD123+ sub-populations in primary AML cells
Format: cell-based, human
Method: Putative leukaemic stem cells were identified by dual expression of CD34 and CD123. The relative sensitivity of these cells to the effects of gemcitabine and NUC-1031 were assessed as a function of the percentage of these cells that remained viable following exposure to molar equivalents of each agent.

Which “CD34^+/CD123^+ leukaemic stem cell viability as compared to gemcitabine” value (1 µM and 2.5 µM) does the source give for “gemcitabine-[phenyl-benzoxy-L-alaninyl)]-phosphate [NUC-1031]” here?
The value was “significant reductions”.

And the “depletion of CSCs (CD34^+/CD123^+ cells) compared with gemcitabine” value (AML blast cultures, micromolar concentrations)?
Its value is “enhanced ability to deplete CSCs; also recorded: preferentially depletes CD34^+/CD123^+ cells”.
